# Data from US7981915B2, “Methods for modulating PPAR biological activity for the treatment of diseases caused by mutations in the CFTR gene” (Beth Israel Deaconess Medical Center, priority 2003, dated 2011).
# How the values were obtained:
# PPARα mRNA [1] = experiment: Liver PPARα mRNA by quantitative RT-PCR (DSS colitis / DHA); format: in vivo, mice
# Protocol: On day 40, WT and cftr^−/− mice were fed Peptamen alone or Peptamen plus 125 mg DSS/day (MP Biomedicals, Aurora, Ohio) for 5 days followed by 9 days of 85 mg DSS/day as previously described for the genesis of bile duct injury (Blanco, P. G. et al., supra). The amount of DSS in Peptamen was equally measured for WT and cftr^−/− mice. The volume of Peptamen administered (20 ml) was measured on a daily basis. There was no difference in Peptamen intake between WT and cftr^−/− mice. The mean weight of WT mice at the start of DSS treatment was 20.5 g (range 14.5-26 g), and the mean weight of cftr^−/− mice was 18.9 g (range 15.5-23.5 g). These values were not statistically different between WT and cftr^−/− mice. […] There was no difference in weight lost during DSS treatment comparing WT and cftr^−/− mice. Additional mice from these groups were given DHA (Pure Encapsulations, Sudbury, Mass.) prepared as a stable emulsion in Peptamen, at a dose of 40 mg per day for 5 days before and continued for 14 days during administration of the DSS. Bile duct injury was quantified, as previously described, by examining histological features of epithelial injury, bile duct proliferation, and bile duct angulation (Blanco et al., supra). To determine whether a complete absence of PPARα was responsible for the bile duct injury, 5 PPARα^−/− mice were treated with 5% DSS in drinking water for 7 days to induce colitis (Okayasu et al., Gastroenterology, 98:694-702, 1990). PPARγ^−/− mice are not viable and thus were not tested.
# After each specific treatment, the mice were euthanized with carbon dioxide. Tissues were snap frozen in RNAlater (Ambion, Austin, Tex.) for RNA extraction (Barrett et al., Nat Genet, 23:32-33, 1999). PPAR mRNA analyses were performed by quantitative RT-PCR. Total RNA from cftr^−/− and WT tissues was prepared using the RNA STAT-60 isolation reagent (Tel-Test, Friendswood, Tex.) and quantified spectrophotometrically. Quantitative PCR was performed in an ABI Prism 7700 Sequence Detector (Applied Biosystems, Foster City, Calif.) using a RT-PCR master mix kit (Applied Biosystems) according to the manufacturer's instructions. PCR primers and PPAR FAM-labeled TaqMan probes were from Integrated DNA Technologies (Coralville, Iowa). The oligonucleotide sequences used for PPARγ were the following: PPARγ exon 2 FW 5′-TCACAAGAGCTGACCCAATGGT-3′ (SEQ ID NO: 1), PPARγ exon 2 RV 5′-ATAATAAGGTGGAGATGCAGGTTCTAC-3′ (SEQ ID NO: 2), PPARγ probe 5′-FAM-CTGAAGCTCCAAGAATACCAAAGTGCGATC-TAMRA-3′ (SEQ ID NO: 3). The sequences used for PPARα were the following: PPARα FW 5′-TATTCGGCTGAAGCTGGTGTAC-3′ (SEQ ID NO: 9), PPARα RV 5′-CTGGCATTTGTTCCGGTTCT-3′ (SEQ ID NO: 10), PPARα probe 5′-CTGAATCTTGCAGCTCCGATCACACTTG-3′ (SEQ ID NO: 11). Levels of mRNA were normalized to 18s ribosomal RNA (ribosomal RNA control reagents, Applied Biosystems) quantified simultaneously to PPAR in a multiplex RT-PCR reaction. Thermocycler conditions used were—Stage 1: 48° C./30 minutes; Stage 2: 95° C./10 minutes; Stage 3: 40 cycles of 95° C./15 seconds and 60° C./60 seconds. All samples were analyzed in duplicate.
# IL-6 [2] = experiment: LPS-induced IL-6 secretion from peritoneal macrophages after in vivo DHA pretreatment; parameters: species or system mice; conditions: CF peritoneal macrophages; oral DHA pretreatment 40 mg/day for 10 days
# Protocol: (§1) Cftr^−/− exon 10 knockout mice and wild-type (WT) littermates were maintained on peptamen (as described above). Peritoneal macrophages were induced by intraperitoneal injection of 2 ml thioglycollate broth followed by harvesting of the macrophages 4 days after injection. For studies determining the effect of in vivo pretreatment of DHA, cftr^−/− mice were given 40 mg DHA/day for 10 days. For in vitro experiments, harvested macrophages were plated in RPMI medium with 10% serum and incubated for 12 hours with media alone or with DHA (5 μM), EPA (5 μM) the PPAR agonist Wy14643 (50 μM) or the PPAR agonist rosiglitazone (10 μM). The cells were washed and then stimulated with 0-10000 ng/ml LPS for 4.5 hours. TNFα and IL-6 secretion were measured by ELISA. Fatty acids were analyzed by GC/MS.
# TNFα = experiment: LPS-induced TNFα secretion from peritoneal macrophages incubated in vitro with PPAR agonists; format: cell-based, mice; conditions: in vitro 12 hours, DHA 5 μM, Wy14643 50 μM, rosiglitazone 10 μM
# Protocol: as §1
# PPARα mRNA [3] = conditions: rat liver; cited from earlier work
# IL-6 [4] = experiment: LPS-induced IL-6 secretion from peritoneal macrophages incubated in vitro with PPAR agonists; format: cell-based, mice; conditions: CF macrophages; in vitro 12 hours; Wy14643 50 μM, rosiglitazone 10 μM; 100 ng/ml LPS
# PPARγ mRNA = experiment: Liver PPARγ mRNA by quantitative RT-PCR (DSS colitis / DHA); format: in vivo; conditions: WT and cftr−/− mice; DSS in the absence or presence of DHA; to undetectable levels
# Protocol: (§2) On day 40, WT and cftr^−/− mice were fed Peptamen alone or Peptamen plus 125 mg DSS/day (MP Biomedicals, Aurora, Ohio) for 5 days followed by 9 days of 85 mg DSS/day as previously described for the genesis of bile duct injury (Blanco, P. G. et al., supra). The amount of DSS in Peptamen was equally measured for WT and cftr^−/− mice. The volume of Peptamen administered (20 ml) was measured on a daily basis. There was no difference in Peptamen intake between WT and cftr^−/− mice. The mean weight of WT mice at the start of DSS treatment was 20.5 g (range 14.5-26 g), and the mean weight of cftr^−/− mice was 18.9 g (range 15.5-23.5 g). […] Bile duct injury was quantified, as previously described, by examining histological features of epithelial injury, bile duct proliferation, and bile duct angulation (Blanco et al., supra). […]
# After each specific treatment, the mice were euthanized with carbon dioxide. […] PPAR mRNA analyses were performed by quantitative RT-PCR. Total RNA from cftr^−/− and WT tissues was prepared using the RNA STAT-60 isolation reagent (Tel-Test, Friendswood, Tex.) and quantified spectrophotometrically. Quantitative PCR was performed in an ABI Prism 7700 Sequence Detector (Applied Biosystems, Foster City, Calif.) using a RT-PCR master mix kit (Applied Biosystems) according to the manufacturer's instructions. […] All samples were analyzed in duplicate.
# PPARα = target: T1, PPARα (Mus musculus, UniProt P23204); experiment: Western blot of PPARα in nuclear and cytosolic liver extracts; format: in vivo; conditions: 3 mice per group
# T1 construct: from tissue; host or cells: mouse liver homogenate (WT and cftr-/- C57/BL6)
# T1 sequence (P23204 1-468): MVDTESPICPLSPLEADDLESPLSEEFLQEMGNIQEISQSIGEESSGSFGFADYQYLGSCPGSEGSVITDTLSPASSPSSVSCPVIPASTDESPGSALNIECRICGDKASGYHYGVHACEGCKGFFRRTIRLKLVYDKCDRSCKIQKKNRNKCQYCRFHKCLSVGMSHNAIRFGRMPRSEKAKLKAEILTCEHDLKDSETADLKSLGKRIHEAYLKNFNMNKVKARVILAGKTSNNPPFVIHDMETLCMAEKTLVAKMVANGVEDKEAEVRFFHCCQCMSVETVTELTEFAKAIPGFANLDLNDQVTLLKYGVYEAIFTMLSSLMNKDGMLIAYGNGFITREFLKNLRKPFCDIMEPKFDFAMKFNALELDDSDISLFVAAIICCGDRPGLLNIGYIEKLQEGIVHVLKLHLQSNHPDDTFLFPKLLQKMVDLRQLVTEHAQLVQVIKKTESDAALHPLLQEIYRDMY
# Protocol: as §2, with “g). These values were not statistically different between WT and cftr^−/− mice. […] There was no difference in weight lost during DSS treatment comparing WT and cftr^−/− mice.” for “g).”
# For western blotting, nuclear and cytoplasmic extracts were prepared as described previously (Ollero et al., supra). […] Protein concentration was measured in all samples by the Bradford protein assay (Bio-Rad, Hercules, Calif.). […]
# [5] = WT mice, single treatment, compared to untreated
# [6] = cftr−/− mice, single treatment, compared to untreated
molecule,measurement,setting,value
"CC/C=C\C/C=C\C/C=C\C/C=C\C/C=C\C/C=C\CCC(=O)O [DHA, Docosahexaenoic Acid]",increase in liver PPARα mRNA,"PPARα mRNA [1]; WT mice, combination of DSS and DHA, compared to no DSS and no DHA",10.4 fold
same,increase in liver PPARα mRNA,PPARα mRNA [1]; [5],12.1 fold
same,increase in liver PPARα mRNA,"PPARα mRNA [1]; cftr−/− mice, combination of DSS and DHA, compared to DSS only, not statistically significant",2.7 fold
same,increase in liver PPARα mRNA,"PPARα mRNA [1]; cftr−/− mice, combination of DSS and DHA, compared to no DSS and no DHA",4.3 fold
same,increase in liver PPARα mRNA,PPARα mRNA [1]; [6],7.0 fold
same,LPS-induced IL-6 secretion,IL-6 [2],no effect
"CC/C=C\C/C=C\C/C=C\C/C=C\C/C=C\CCCC(=O)O [EPA, eicosapentaenoic acid]",decrease in LPS induced TNFα secretion,"TNFα; CF macrophages, EPA 5 μM, 100 ng/ml LPS",no effect
Cc1cccc(Nc2cc(Cl)nc(SCC(=O)O)n2)c1C [Wy14643],decrease in LPS induced TNFα secretion,TNFα; WT macrophages,did not alter secretion
same,PPARα mRNA levels,PPARα mRNA [3],increase PPARα mRNA levels
CN(CCOc1ccc(CC2SC(=O)NC2=O)cc1)c1ccccn1 (stereo not shown) [rosiglitazone],decrease in LPS induced TNFα secretion,TNFα; WT macrophages,18%
same,decrease in LPS induced IL-6 secretion,IL-6 [4],no effect
dextran sodium sulfate [DSS],increase in liver PPARα mRNA,PPARα mRNA [1]; [5],9.3 fold
same,increase in liver PPARα mRNA,PPARα mRNA [1]; [6],no significant change
same,liver PPARγ mRNA levels,PPARγ mRNA,markedly suppressed
same,"PPARα nuclear/cytoplasmic ratio, liver (densitometry)",PPARα; WT mice,1.06±0.05
same,"PPARα nuclear/cytoplasmic ratio, liver (densitometry)",PPARα; cftr−/− mice,0.61±0.02
